Laboratory results taken from patent US9457005B2, “Compositions and methods for increasing insulin sensitivity” (Orexigen Therapeutics, Inc., priority 2005, dated 2016).
Several values for one entry are separate records, joined by “and”; a condition that tells them apart may be missing. Equal entries are not always repeated.

Tests used:
[1] = test system: blood glucose levels; experiment: Insulin tolerance test, naltrexone and bupropion, glucose AUC (Example 8); format: in vivo, mice; conditions: naltrexone 3 mg/kg, bupropion 50 mg/kg
Protocol: (§1) A baseline blood glucose determination was made two hours post-injection. Mice were then given a standard I.P. injection of insulin. Blood glucose levels were then followed for two hours (at 15 min, 30 min, 1 h and 2 h). […] Glucose levels are in mg/dl.
Total areas under the curve (AUC) were calculated based on glucose levels at each time point for each mouse. AUC is a summation of glucose levels observed at each time point.

[2] = test system: blood glucose levels; experiment: Blood glucose after olanzapine minipump and zonisamide injections (Example 9); format: in vivo, Female Sprague-Dawley rats; conditions: rats; olanzapine 1.75 mg/day by minipump, zonisamide 26 mg/kg twice daily; 13 days after olanzapine implant, 6 days after zonisamide injections began; vehicle 92.2
Protocol: Female Sprague-Dawley rats, weighing about 235 grams at the start of the experiment were used. […] The rats were subsequently returned to their home cages after recovery. The minipumps delivered 5 μL per hour for 14 days. […] The animals were housed individually and supplied with standard laboratory chow. Food consumed and animal weights were recorded every day. […] Rats were allowed to recover after pump implantation, and then received twice daily injections of zonisamide 26 mg/kg. […] The results are shown below (Table 5).

[3] = test system: blood glucose levels; experiment: Insulin tolerance test, naltrexone and fluoxetine (Example 7); format: in vivo, Mice; conditions: for Blood glucose, 15 min / Blood glucose, 30 min / Blood glucose, 1 h / Blood glucose, 2 h / Blood glucose, Baseline: individual mice (n=3), I.P. fluoxetine 8.5 mg/kg and/or naltrexone 2.5 mg/kg; for Blood glucose, 15 min: 15 min after I.P. insulin; for Blood glucose, 30 min: 30 min after I.P. insulin; for Blood glucose, 1 h: 1 h after I.P. insulin; for Blood glucose, 2 h: 2 h after I.P. insulin; for Blood glucose, Baseline: baseline two hours post-injection, before I.P. insulin; for Effect on insulin tolerance / insulin resistance (in words): mice, fluoxetine 8.5 mg/kg, naltrexone 2.5 mg/kg I.P., compared with vehicle or either compound alone
Protocol: as §1

Structure (SMILES)	Blood Glucose, Average [2] [mg/dL]	Blood glucose, 15 min [3]	Blood glucose, 30 min [3]	Blood glucose, 1 h [3]	Blood glucose, 2 h [3]	Blood glucose, Baseline [3]	Effect on insulin tolerance / insulin resistance (in words) [3]	other results
CC(NC(C)(C)C)C(=O)c1cccc(Cl)c1 (centres unmarked) [Bupropion, bupropion]								Total area under the curve (AUC) of glucose levels, each mouse ([1]; individual mice (n=12), summation of glucose levels at each time point): 13613 and 12038 and 9083 and 14003 and 9668 and 8003 and 8715 (2×); Decrease in AUC versus vehicle [1]: 4.3%; Mean AUC as % of vehicle AUC ([1]; vehicle mean=11136.2): 95.7%
Cc1cc2c(s1)Nc1ccccc1N=C2N1CCN(C)CC1 [Olanzapine, olanzapine]	120.4							
NS(=O)(=O)Cc1noc2ccccc12 [Zonisamide, zonisamide]	117.6							
CNCCC(Oc1ccc(C(F)(F)F)cc1)c1ccccc1 (centres unmarked) [fluoxetine]		63 mg/dL and 82 mg/dL and 84 mg/dL	93 mg/dL and 90 mg/dL and 80 mg/dL	118 mg/dL and 138 mg/dL and 89 mg/dL	228 mg/dL and 169 mg/dL and 189 mg/dL	135 mg/dL and 161 mg/dL and 145 mg/dL	neither fluoxetine nor naltrexone alone had an effect on insulin tolerance	
O=C1CC[C@@]2(O)[C@H]3Cc4ccc(O)c5c4[C@@]2(CCN3CC2CC2)[C@H]1O5 [naltrexone]		68 mg/dL and 62 mg/dL and 65 mg/dL	84 mg/dL and 82 mg/dL and 81 mg/dL	80 mg/dL and 127 mg/dL	181 mg/dL and 175 mg/dL and 186 mg/dL	137 mg/dL and 111 mg/dL and 134 mg/dL	neither fluoxetine nor naltrexone alone had an effect on insulin tolerance	
